The results in this text go back to the METLIN SMRT retention time set (Domingo-Almenara et al. 2019).

This data set is described as follows: gradient 5% acetonitrile 3 min, to 50% in 2 min, to 85% in 15 min, held 3 min, 100 µL/min. To be noted: column: Zorbax Extend-C18 2.1 x 50 mm; eluents: water / acetonitrile, 0.1% formic acid. A digest of the protocol:
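Over 3 months, pure standards in mixtures of ~100 molecules were run by HPLC coupled to a quadrupole time-of-flight mass spectrometer in positive and negative ionization mode. The column was a Zorbax Extend-C18 (2.1 × 50 mm, 1.8 μm) at 100 μL/min, eluted with water and acetonitrile each holding 0.1% formic acid, with 40 μL dead and 900 μL dwell volumes. Retention time was determined from adduct peaks chosen by software and checked manually.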
For the compound `CC(C)c1nnc2n1CCN(C(=O)c1ccc(Cl)s1)C2`, the RP-LC retention time was found to be 661 s.

Take `O=C(CSc1ccc(N2CCCC(C(=O)NC3CC3)C2)nn1)Nc1ccc2c(c1)OCCO2` (stereo not given): the RP-LC retention time was found to be 619 s.

Regarding `Cc1noc(C2CN(C(=O)CCC(C)C)CC23CCOCC3)n1` (stereo not given), the RP-LC retention time turned out to be 678 s.

`N[C@@H](Cc1ccc2oc3cc(=O)c4ccccc4c-3nc2c1)C(=O)O` came in with an RP-LC retention time of 611 s.

Turning to `COc1ccc(Cl)cc1NC(=O)c1c(C)oc2c1C1=NCCN1C=N2`, the RP-LC retention time worked out at 674 s.

Turning to `O=C(c1cnn(-c2ccccc2)n1)N1CCC(c2nnc(-c3ccc(F)cc3)o2)CC1`, the RP-LC retention time was determined as 888 s.

The compound `COc1ccc(N2C(=O)c3cc(C)nn3CC2(C)C(=O)NCc2ccc(F)cc2)cc1` (stereo not given) displayed an RP-LC retention time of 770 s.

`Cc1ccc2c(c1)C(O)(CC(=O)c1cccc(N)c1)C(=O)N2` (stereo not given) returned an RP-LC retention time of 606 s.

`COc1cccc(C(=O)N2CCC(c3cc(N)on3)CC2)c1`: the RP-LC retention time amounted to 653 s.

Regarding `COc1cc2c(c(OC)c1O)C(=O)CO2`, the RP-LC retention time worked out at 642 s.

In the case of `Fc1ccc(Nc2nc(NCC3CCCO3)nc3c2cnn3-c2ccccc2)cc1` (stereo not given), the RP-LC retention time worked out at 1050 s.

The compound `COc1ccc(-c2nc(-c3cn(Cc4ccc(F)cc4)nn3)no2)cc1` had an RP-LC retention time of 963 s.

Consider `O=C(Nc1nc(-c2ccco2)cs1)C1COCC(=O)N1Cc1ccccc1` (stereo not given), for which the RP-LC retention time worked out at 729 s.

Turning to `O=C(c1nnc(-c2csc(S(=O)(=O)N3CCN(c4ncccn4)CC3)c2)o1)N1CCCCC1`, the RP-LC retention time stood at 881 s.

`COc1ccc(N2CC(c3nc(-c4cccc(Cl)c4)no3)CC2=O)cc1OC` (stereo not given) yielded an RP-LC retention time of 951 s.

In turn, `COc1cccc(/C=C2\CCc3ccccc3C2=O)c1` gave an RP-LC retention time of 1200 s.

The compound `CCCNC(=O)C1CCN(c2ccc(SCC(=O)Nc3ccccc3C)nn2)CC1` yielded an RP-LC retention time of 636 s.

Turning to `O=C(NC1CCCC1)c1cccc2c1CCN2C(=O)c1ccc(F)cc1`, the RP-LC retention time stood at 862 s.

The compound `COc1ccc(N2C(=O)C(O)=C(S(=O)(=O)c3ccccc3)C2c2ccccc2)cc1` (stereo not given) gave an RP-LC retention time of 854 s.

In turn, `Cc1nc(C(=O)N2CC(F)(F)C[C@H]2c2nc(C3CC3)no2)co1` gave an RP-LC retention time of 768 s.

Turning to `O=C(NC1CCCCCCC1)C1CCN(C(=O)c2cccn2-c2cccnc2)CC1`, the RP-LC retention time is 797 s.

Consider `Cc1cccc(OCC(=O)N2CC(CN(C)C)C3(CCOCC3)C2)c1` (stereo not given), for which the RP-LC retention time came to 598 s.

Turning to `CCCC(=O)Nc1nc2ccc(CCC(=O)Nc3ccc(CC)cc3)cc2s1`, the RP-LC retention time was determined as 952 s.

On to `Cc1ccc(NC(=O)Cn2cccc2-c2nnc(C3CCC3)o2)cc1F`, for which the RP-LC retention time was 973 s.

For `CCCC(NC(=O)c1cc(OC)cc(OC)c1)C(=O)Nc1nc2ccccc2[nH]1` (stereo not given), the RP-LC retention time was 719 s.

`Cn1cnc2c(C(=O)Nc3ccccc3)nn(-c3ccccc3)c2c1=O` came in with an RP-LC retention time of 835 s.

The compound `O=C(NCc1ccncc1)c1ccc(-c2ccsc2)nc1` returned an RP-LC retention time of 589 s.

The compound `Cc1nn(CC(=O)N2CCOCC2)c(=O)c2c(-n3cccc3)n(-c3ccc(F)cc3)nc12` had an RP-LC retention time of 809 s.

Compound `O=C(C1CCCN(S(=O)(=O)c2cc(-c3noc(C4CCCC4)n3)cs2)C1)N1CCOCC1` (stereo not given) registered an RP-LC retention time of 966 s.

In the case of `O=S(=O)(c1ccccc1C(F)(F)F)N1CCc2nc(-c3ccc(F)cc3)ncc2C1`, the RP-LC retention time came to 1150 s.

In turn, `CCOc1ccc(OC(=O)C2CCN(c3nc4ccccc4[nH]3)CC2)cc1` returned an RP-LC retention time of 712 s.

Compound `O=C(CN1CCN(C(=O)Nc2ccc(F)cc2)CC1=O)NC1CCCCC1` gave an RP-LC retention time of 701 s.

As to `Cc1ccc(-c2[nH]ncc2CN2CCC3(CCC3O)CC2)cc1` (stereo not given), the RP-LC retention time was 577 s.

`COc1ccc(S(=O)(=O)N2CCc3c(c(-c4nnc(-c5ccccc5)o4)nn3C)C2)cc1` had an RP-LC retention time of 909 s.

Regarding `Cc1ccc2[nH]cc(CCNC(=O)c3cc(-c4ccccn4)nc4ccccc34)c2c1`, the RP-LC retention time is 902 s.

The compound `Cc1ccccc1S(=O)(=O)N1CCC(CCC(=O)O)CC1` yielded an RP-LC retention time of 807 s.

Take `CCCn1c(=O)c2c(C(=O)N3CCN(c4ccc(Cl)cc4)CC3)cc(=O)n(CCC)c2n(C)c1=O`: the RP-LC retention time worked out at 1210 s.

Turning to `COc1cccc(S(=O)(=O)N2CCC(N3C[C@H](OC)[C@@H]3c3ccncc3)CC2)c1`, the RP-LC retention time was 625 s.

As to `O=C(CCCc1nc2cccnc2n1Cc1ccc(F)cc1)N1CCCC1`, the RP-LC retention time worked out at 707 s.

`CCOc1ccc(CNC(=O)c2cn3cc(Cl)ccc3n2)cc1` returned an RP-LC retention time of 863 s.

Compound `CC1(C(=O)NCc2ccc(F)cc2)CCCN(C(=O)Nc2ccccc2Br)C1` (stereo not given) showed an RP-LC retention time of 955 s.

In the case of `Cc1sc(-c2nnc(C3CC3)o2)cc1NC(=O)C(C)c1ccccc1` (stereo not given), the RP-LC retention time stood at 998 s.

On to `COCC(=O)N1CCCn2cc(-c3cccc(C#N)c3)nc21`, for which the RP-LC retention time came to 675 s.

`CCOc1ccc(N2C(=O)C3N=NN(Cc4nc(-c5ccc6c(c5)OCO6)no4)C3C2=O)cc1` (stereo not given) yielded an RP-LC retention time of 963 s.

Regarding `Cn1cnc(S(=O)(=O)N2CCC(C(=O)NCc3ccccc3Cl)CC2)c1`, the RP-LC retention time came out at 695 s.

In turn, `CC(=O)Nc1ccc(C(=O)N2CCN(c3cc(-c4cccs4)[nH]n3)CC2)cc1` registered an RP-LC retention time of 641 s.

Take `O=C(NCc1ccnc(N2CCCCCC2)c1)Nc1ccc2c(c1)OCO2`: the RP-LC retention time is 622 s.

For `CN1C(=O)[C@H]2CN(Cc3cn[nH]c3-c3ccc(F)cc3)C[C@H]2C1=O`, the RP-LC retention time was determined as 575 s.

In the case of `Nc1ccc2c3c(cccc13)C(=O)NC2=O`, the RP-LC retention time was 657 s.

In turn, `CC(C)c1ccc(NC(=O)CC2COc3ccccc3NC2=O)cc1` (stereo not given) had an RP-LC retention time of 872 s.

Consider `CCc1cnc2c(c1SCC(=O)N(CC)CC)c(=O)n(C)c(=O)n2C`, for which the RP-LC retention time was determined as 786 s.

For the compound `Cn1cccc1C(=O)N1CCC(c2noc(-c3ccncc3)n2)C1` (stereo not given), the RP-LC retention time came to 720 s.

In the case of `COc1cccc(NC(=O)N2CCc3cn(C)c4cccc(c34)C2)c1`, the RP-LC retention time was 771 s.

For the compound `NS(=O)(=O)c1ccc(NC(=O)CCCN2C(=O)c3cccc4cccc(c34)C2=O)cc1`, the RP-LC retention time worked out at 694 s.

On to `CCOc1ccc(NC(=O)C2CCCN(c3nnc4ccccn34)C2)cc1` (stereo not given), for which the RP-LC retention time stood at 674 s.

Regarding `O=S(=O)(c1ccc(Cl)cc1)N1CCc2nc(-c3ccc(Cl)cc3)ncc2C1`, the RP-LC retention time stood at 1270 s.

Take `COc1ccc(NC(=O)C2CCCN(c3nccnc3Sc3ccccc3)C2)c(OC)c1` (stereo not given): the RP-LC retention time turned out to be 1060 s.

For the compound `O=C(C1=CN(c2ccc3c(c2)OCCO3)c2cc(F)ccc2S1(=O)=O)N1CCCC1`, the RP-LC retention time amounted to 735 s.

Consider `Cc1ccccc1NC(=O)C1CCN(C(=O)C2Sc3ccccc3NC2=O)CC1` (stereo not given), for which the RP-LC retention time was determined as 741 s.

Compound `Cc1ccc(-c2nnc(-c3cccnc3N3CCC4(CC3)OCCO4)o2)cc1` had an RP-LC retention time of 962 s.

Turning to `CCN1CCC2(CC1)OC(=O)C(C)=C2C(=O)NCCc1ccc(Cl)cc1`, the RP-LC retention time was 653 s.

For `Cc1nc2cc(-c3noc(-c4ccc(Cl)cc4)n3)ccc2n(C)c1=O`, the RP-LC retention time was determined as 872 s.

`O=C(CCN1C(=O)C2CC=CCC2C1=O)N1CCN(c2ccccn2)CC1` (stereo not given) had an RP-LC retention time of 558 s.

Regarding `Brc1ccc(OCc2nnc3sc(-c4ccccn4)nn23)cc1`, the RP-LC retention time is 960 s.

`O=C(Nc1nsc(-c2ccccc2)n1)c1cccs1` came in with an RP-LC retention time of 743 s.

Turning to `COc1ccc(-c2noc(Cc3nnc(-c4cccc(Br)c4)o3)n2)cc1`, the RP-LC retention time came out at 1100 s.

`Cn1cc(-c2cc3n(n2)CCC(=O)N3CC(=O)NCCCN2CCCCC2)c2ccccc21`: the RP-LC retention time turned out to be 616 s.

In turn, `CCOc1ccccc1NC(=O)C1CCN(S(C)(=O)=O)c2cc(Cl)ccc2O1` (stereo not given) yielded an RP-LC retention time of 910 s.

Regarding `CCN(CC)S(=O)(=O)c1cccc(-c2nnc(-c3cccc(C)c3)o2)c1`, the RP-LC retention time turned out to be 1120 s.

Take `O=C(c1ccc(Br)o1)N1CC2CN(S(=O)(=O)c3ccccc3)CC(C1)O2`: the RP-LC retention time amounted to 781 s.

Compound `Cc1ccc(F)cc1S(=O)(=O)N1CCC(C2CCNC2)CC1` (stereo not given) showed an RP-LC retention time of 651 s.

Regarding `Cc1nc(CCNS(=O)(=O)c2cccc(C(F)(F)F)c2)no1`, the RP-LC retention time was 807 s.

The compound `CCCCn1cc(S(=O)(=O)N2CCN(c3ccc(C)cc3)CC2)c2cccnc21` returned an RP-LC retention time of 1220 s.

As to `CC(=O)c1cccc(NC(=O)Cn2c(-c3ccc(Cl)cc3)nc(C)cc2=O)c1`, the RP-LC retention time was 1060 s.

`O=C(CCOc1ccccc1)NCc1ccccc1` registered an RP-LC retention time of 759 s.

Compound `O=C(Nc1ccc(N2CCOCC2)cc1)c1cn2c(n1)CSCC2` displayed an RP-LC retention time of 600 s.

On to `O=C(Cn1ccn2nc(-c3ccccc3)c(CO)c2c1=O)Nc1ccc2c(c1)OCCO2`, for which the RP-LC retention time turned out to be 759 s.

In turn, `Cc1oc(-c2ccc(NC(=O)Cc3ccccc3Cl)cc2)nc1Cn1cccn1` showed an RP-LC retention time of 899 s.

In turn, `O=C(Nc1nc2c(s1)CCCC2)c1cccc(C(F)(F)F)c1` yielded an RP-LC retention time of 1030 s.

The compound `CS(=O)(=O)N1CCC(C(=O)NCc2ccccc2)Oc2ccc(Cl)cc21` (stereo not given) came in with an RP-LC retention time of 882 s.
